Measured values reported in EP0738149B1 (priority 1994, dated 1995).
Read-outs that look alike come from different tables or passages of the source.

What was measured:
[1] = tested on: hypoxic rat; assay: Passive avoidance test in hypoxic rat, Experiment 3A; assay type: in vivo; conditions: Exp 3A, day 13 of drug treatment 0.5mg/kg/Day, Mean ± SEM; for latency of response, 48h after electroshock: maximum 300 seconds
Procedure: Experiment 3A: Wistar male rats, 15-19 month-old, were exposed to a single hypoxic episode as described above. […] The passive avoidance test was performed on day 13 after initiation the drug treatment. The apparatus consisted of a lit chamber that can be separated from a dark chamber by a sliding door. At training, a rat is placed in the lit chamber for 30 seconds, then the door is opened. The rat moves to the dark chamber after a short delay - the latency, that is recorded. Upon entry into the dark chamber, the door is shut closed and a 0.3-mA footshock is delivered for 3 seconds by a Grass S-88 stimulator. Retention of the experience is determined after 48 hours by repeating the test and recording the latency to an arbitrary maximum of 300 seconds. Longer latencies are ascribed to retention of memory and improved cognition.

[2] = tested on: hypoxic rat; assay: Amphetamine-induced stereotype behavior in hypoxic rat, Experiments 2A and 2B; assay type: in vivo; conditions: for total number of lateral head movements per minute: Exp 2A, 0.5mg/kg daily 29 days, D-amphetamine sulfate 0.5mg/kg s.c., 45-60 min after, Mean ± SEM; for lateral head movements: Exp 2B, 0.3mg/kg daily i.p. 14 days, 12 month-old rats
Procedure: Experiment 2A. Wistar male rats, 15-19 month-old, were exposed to a single hypoxic episode as described above. […] Rats pretreated for 29 days with daily doses of the test drugs (0.5mg/kg), received a sub-cutaneous (s.c.) injection of D-amphetamine sulfate at a dose of 0.5mg/kg. D-amphetamine is known to cause an enhancement of the effects of CNS dopamine by a mechanism involving dopamine release, and blockage of its uptake and its metabolism by MAO. The behavioral manifestation of amphetamine action is a stereotypic pattern of lateral head movements.
Counts of lateral head movements were taken over two successive intervals of 1 min each, 45-60 min after the injection of amphetamine and then averaged.
Experiment 2B. […] The drugs were given by i.p. injection. • 3) Duration of the treatment: 14 days.

[3] = tested on: hypoxia-lesioned rats; assay: Water maze working memory test in hypoxia-lesioned rats, Experiment 3B; assay type: in vivo, rat; conditions: 0.5mg/kg/day 60 days, ±SEM
Excerpt: The apparatus used consists of a circular water tank 160cm in diameter filled with water to a depth of 38cm. The water was made cloudy by the addition of milk powder. A clear Plexiglass 15cm platform, supported by a movable stand rest on the bottom of the tank was submerged to a depth of 2cm from the water surface. Normally a swimming rat cannot perceive the location of the platform but it may recall it from a previous experience and training, unless it suffers from some memory impairment. The time taken to locate the platform is measured in seconds and referred to as the latency. During the experiment all orientational cues such as ceiling lights etc. remained unchanged. Longer latencies are observed with rats with some impairment to their memory.
Each rat was given two trails a day for four days, entering the pool from the same point of entry each day. The position of the platform was changed daily to one of four predetermined positions. Each rat was tested twice each day over the four days, referred to as runs 1 and 2 on sessions I-IV. Initially the rat was placed on the platform for 60 seconds. It was then removed and placed at the point of entry and allowed a maximum of 120 seconds to locate the platform (run 1). The second run for that day followed 60 seconds later (run 2). In the second run the rat is expected to find the platform much sooner, having benefitted from its earlier experience. […] The average latency of run 1 in four sessions on four different days was then related to the corresponding parameter of run 2. The smaller the ratio of […], the better the short range learning score.
Table 8. […] The data are the latencies in seconds±SEM that it took a given group to locate a submerged and invisible platform the location of which was shifted from one session to the other. The time interval between sessions was one day, and that between successive runs was 60 seconds. (n=7-8 rats per group) TABLE 8

[4] = tested on: rats; assay: Maximal electroshock (MES) model in rats, p.o.;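 also: rat MES model gauging antiepileptic efficacy versus generalized and partial seizures after oral dosing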; assay type: in vivo; conditions: Rattus norvegicus, po, read-out: RATS MES 50
[5] = in vivo; conditions: rat, in vivo, po
Procedure: (§1) Neurotoxicity of the claimed agents was also assessed in mice (i.p. administration) by the rotorod ataxia test and/or in rats (p.o. administration) by positional sense test and gait stance test. […] The term quantitating the neurotoxicity is the medial neurological toxic dose (TD50), was determined in the above tests.

[6] = tested on: rats; assay: Neurotoxicity in rats (positional sense test and gait stance test), p.o.; conditions: rats, p.o.; Table 16
Procedure: as §1

[7] = tested on: Male mongolian gerbils; assay: Global brain ischemia in gerbils (CA1 pyramidal neurons); assay type: in vivo; conditions: 3 injections, fraction of hippocampi protected from ischemia, 14 days post-ischemia
Method in brief: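 Global ischemia induced by clamping each artery for 5 min. Compound given ip 2 min after clamp removal, then daily for the next 2 days (3 doses). CA1 pyramidal neurons counted 14 days post-ischemia in H&E-stained anterior hippocampal sections; percent protection is the fraction of hippocampi protected at the stated dose.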

[8] = Neurotoxicity in mice (rotorod ataxia test), i.p.; conditions: mouse, in vivo, ip
Procedure: as §1

[9] = tested on: mice; assay: Neurotoxicity in mice (rotorod ataxia test), i.p.
Procedure: as §1

Compound	latency of response, before electroshock [1]	latency of response, 48h after electroshock [1]	total number of lateral head movements per minute [2]	lateral head movements [2]	latency to locate submerged platform ([3]; Session I Run 1)	latency to locate submerged platform ([3]; Session I Run 2)	latency to locate submerged platform ([3]; Session II Run 1)	latency to locate submerged platform ([3]; Session II Run 2)	latency to locate submerged platform ([3]; Session III Run 1)	latency to locate submerged platform ([3]; Session III Run 2)	latency to locate submerged platform ([3]; Session IV Run 1)	latency to locate submerged platform ([3]; Session IV Run 2)	TD50 [5]	RATS TD50 [6]	PERCENT PROTECTION ([7]; 0.1 mg/kg ip)	PERCENT PROTECTION ([7]; 1.0 mg/kg ip)	PERCENT PROTECTION ([7]; 10.0 mg/kg ip)	further results
C#CCN(C)[C@H](C)Cc1ccccc1 [deprenyl]	53 ± 7 s	153 ± 37 s	76 ± 3 per minute	77 ± 3	42 ± 16 s	40 ± 17 s	42 ± 18 s	35 ± 16 s	32 ± 15 s	8 ± 2 s	19 ± 6 s	12 ± 4 s	–	–	–	–	–	–
N[C@@H]1CCc2ccccc21 [R-AI, (R)-1-aminoindan]	53 ± 6 s	245 ± 33 s	108 ± 3 per minute	92 ± 3	50 ± 16 s	25 ± 12 s	25 ± 8 s	14 ± 3 s	19 ± 5 s	14 ± 3 s	15 ± 5 s	6 ± 2 s	492 mg/kg	492 mg/kg	25.0%	25.0%	25.0%	ED50 [4]: 184 mg/kg; TD50 [8]: 71 mg/kg; MICE TD50 ([9]; mice, i.p., Table 16): 71 mg/kg
CC(=O)N[C@@H]1CCc2ccccc21 [Example 18, (R)-N-Acetyl-1-aminoindan]	–	–	–	–	–	–	–	–	–	–	–	–	> 500 mg/kg	>500 mg/kg	25.0%	25.0%	66.7%	ED50 ([4]; rats, p.o., Table 15): 14 mg/kg; TD50 ([8]; MICE TD50): 75 mg/kg; MICE TD50 ([9]; mouse, in vivo, ip): 75 mg/kg
